Here are results for one compound from US20230241226A1, “COMPOUNDS FOR TARGETED DEGRADATION OF CARRIER PROTEINS AND USES THEREOF” (CeMM - Forschungszentrum für Molekulare Medizin GmbH, priority 2019, published 2023).

Entries after “also recorded” stand apart in the source; their conditions may differ.

For this assay, the target named is T1, dTAG-HA SLC38A2 (knock-in) (Homo sapiens, UniProt Q96QD8+Q96SW2).
T1 construct: SLC38A2 was selected for endogenous tagging at the N-terminus; endogenous in cells
The experiment in a line: dTAG knock-in: degradation of endogenously tagged SLC38A2 induced by amino acid starvation. Type of assay: cell-based. The source says:
(A) dTAG knock-in: SLC38A2 was tagged at N-terminus with dTAG-HA. Blasticidn was used as the selection marker. Single cell clones were derived and characterized as previously described. Two representative clones, B7 and C9 are presented here.
(B) The expression of dTAG-HA SLC38A2 was induced by replacing the normal culture media with media deprived of amino acids and FBS. Expression of the endogenous SLC is induced rapidly and was monitored by immunofluorescence imaging and quantified by automated image analysis. Representative images are shown.
(C)The effect of amino acid starvation on dTAG-HA SLC38A2 expression in HAP1 cells. Cells were treated with 0.5 µM dTAG13 and/or media lacking amino acids/FBS for either 6 or 10 hours, after which expression and degradation were monitored via western blot.
(D) Immunofluorescence imaging of two different HAP1 clones expressing dTAG-HA SLC38A2. Cells were incubated in media lacking amino acids/FBS for 8 hours and treated with 0.5 µM dTAG13 for either 8 or 10 hours. Expression of the endogenous SLC is induced rapidly and was monitored by immunofluorescence and quantified by automated image analysis. Representative images are presented.
HEK293T, LS180 were obtained from ATCC (Manassas, VA, USA), HAP1 WT, HAP1 -/-SLC38A2 (HZGHC001975c003), HAP1 -/-SLC38A9 (HZGHC000777c011) were obtained from Horizon Genomics. […]
For immunoblotting, whole cell extracts were prepared using RIPA lysis buffer (25 mM Tris/HCl pH 7.6, 150 mM NaCl, 1% NP-40, 1% sodium deoxycholate, 0.1% SDS, EDTA-free protease inhibitor (Roche) and phosphatase inhibitors 2+3 (Sigma- Aldrich)). […] Protein extracts were quantified and normalized using the BCA assay (Thermo Scientific). […]

T1 sequence (Q96SW2 whole entry): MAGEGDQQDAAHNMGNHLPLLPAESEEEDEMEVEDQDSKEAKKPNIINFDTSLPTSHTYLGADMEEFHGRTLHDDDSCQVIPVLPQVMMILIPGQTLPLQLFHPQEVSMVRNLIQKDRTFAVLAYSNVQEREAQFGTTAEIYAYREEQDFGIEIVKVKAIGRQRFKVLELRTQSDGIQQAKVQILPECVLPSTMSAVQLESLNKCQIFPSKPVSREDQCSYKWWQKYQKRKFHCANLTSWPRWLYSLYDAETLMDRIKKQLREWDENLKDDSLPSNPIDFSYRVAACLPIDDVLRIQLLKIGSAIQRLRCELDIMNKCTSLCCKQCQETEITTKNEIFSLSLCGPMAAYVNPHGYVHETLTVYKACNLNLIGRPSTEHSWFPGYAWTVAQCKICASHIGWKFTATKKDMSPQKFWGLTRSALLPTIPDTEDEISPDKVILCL
T1 sequence (Q16531 whole entry, further chain): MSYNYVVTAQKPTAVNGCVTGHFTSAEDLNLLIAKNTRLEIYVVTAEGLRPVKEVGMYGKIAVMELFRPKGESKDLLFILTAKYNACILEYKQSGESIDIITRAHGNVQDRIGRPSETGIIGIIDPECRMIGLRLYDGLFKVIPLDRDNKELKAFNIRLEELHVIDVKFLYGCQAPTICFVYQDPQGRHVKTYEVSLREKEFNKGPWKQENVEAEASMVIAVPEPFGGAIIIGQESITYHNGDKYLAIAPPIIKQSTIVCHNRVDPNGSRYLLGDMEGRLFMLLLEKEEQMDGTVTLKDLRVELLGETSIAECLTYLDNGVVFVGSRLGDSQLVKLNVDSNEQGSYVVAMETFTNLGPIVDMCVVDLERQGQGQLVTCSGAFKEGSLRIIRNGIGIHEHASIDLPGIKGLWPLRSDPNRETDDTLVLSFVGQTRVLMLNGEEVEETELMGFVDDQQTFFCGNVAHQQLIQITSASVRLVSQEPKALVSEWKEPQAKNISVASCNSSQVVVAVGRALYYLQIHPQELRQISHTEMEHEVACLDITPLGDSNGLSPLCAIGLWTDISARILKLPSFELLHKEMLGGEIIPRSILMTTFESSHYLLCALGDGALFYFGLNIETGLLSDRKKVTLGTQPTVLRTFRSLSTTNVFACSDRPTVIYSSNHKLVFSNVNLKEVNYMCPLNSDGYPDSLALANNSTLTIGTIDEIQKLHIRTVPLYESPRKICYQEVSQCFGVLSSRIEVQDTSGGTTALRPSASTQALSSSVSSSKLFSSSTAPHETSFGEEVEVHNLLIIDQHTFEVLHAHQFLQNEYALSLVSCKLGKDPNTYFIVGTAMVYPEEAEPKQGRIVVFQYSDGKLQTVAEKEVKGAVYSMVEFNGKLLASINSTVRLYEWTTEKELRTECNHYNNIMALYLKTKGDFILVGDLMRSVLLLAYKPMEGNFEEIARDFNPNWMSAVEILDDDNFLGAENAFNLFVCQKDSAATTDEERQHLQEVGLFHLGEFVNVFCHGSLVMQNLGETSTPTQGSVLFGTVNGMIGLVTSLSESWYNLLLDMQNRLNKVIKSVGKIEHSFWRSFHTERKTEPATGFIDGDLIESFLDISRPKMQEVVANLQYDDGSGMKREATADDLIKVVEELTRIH
T1 sequence (Q96QD8 other isoform, or with tags, fused parts or gaps): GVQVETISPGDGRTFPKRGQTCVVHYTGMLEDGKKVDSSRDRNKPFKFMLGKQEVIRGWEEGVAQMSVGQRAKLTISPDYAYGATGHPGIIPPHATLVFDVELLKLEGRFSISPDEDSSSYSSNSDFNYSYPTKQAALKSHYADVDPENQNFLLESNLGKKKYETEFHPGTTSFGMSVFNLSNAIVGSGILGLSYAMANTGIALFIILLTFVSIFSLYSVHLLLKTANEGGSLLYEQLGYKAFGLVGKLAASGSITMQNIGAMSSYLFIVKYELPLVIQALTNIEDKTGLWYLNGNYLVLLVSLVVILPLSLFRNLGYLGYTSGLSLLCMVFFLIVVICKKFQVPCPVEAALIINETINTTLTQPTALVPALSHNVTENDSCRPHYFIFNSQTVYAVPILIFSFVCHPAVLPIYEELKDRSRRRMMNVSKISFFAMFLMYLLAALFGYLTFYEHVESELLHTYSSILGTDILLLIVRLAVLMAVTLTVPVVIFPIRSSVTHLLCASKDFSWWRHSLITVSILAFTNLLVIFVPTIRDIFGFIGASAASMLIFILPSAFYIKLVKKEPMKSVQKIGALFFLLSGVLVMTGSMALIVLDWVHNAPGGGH

In the case of `CC[C@H](C(=O)N1CCCC[C@H]1C(=O)O[C@H](CCc1ccc(OC)c(OC)c1)c1ccccc1OCC(=O)NCCCCCCOc1cccc2c1C(=O)N(C1CCC(=O)NC1=O)C2=O)c1cc(OC)c(OC)c(OC)c1` (stereo partly drawn) [dTAG13], for the setting “HAP1, 0.5 µM cotreatment with media lacking amino acids/FBS, 6 or 10 hours”, the “degradation of knock-in dTAG-HA SLC38A2 (western blot)” value was “Near complete degradation”. For the same compound, for the setting “HAP1 knock-in clones, 0.5 µM, 2 hours pre-treatment, 8 hours starvation”, the “SLC38A2 expression after pre-treatment (immunofluorescence, automated image analysis)” value was “completely abrogate any SLC expression; also recorded: completely ablated”. Under “HAP1 knock-in clones, 0.5 µM, co-treatment with starvation 8 hours”, the “reduction of SLC38A2 expression by co-treatment” value was “more than 50%”.
